In US20060269482A1 (priority 2005, published 2006):

Columns and labels:
[1] = tested on: Rb phosphorylation in rat PBMCs; assay: Rb phosphorylation in rat PBMCs following ex vivo PMA activation; type: cell-based; conditions: 300 ng/ml for 24 hours, Western blot
Protocol: PBMCs are not cycling cells and need to be stimulated with the mitogen PMA to enter the cell cycle.
Blood from three rats at the specified times was pooled (˜10 mls total) and PBMCs were separated using the Lymphocyte Separation Medium (LSM) and protocol supplied by ICN Biomedicals Inc. (Costa Mesa, Calif.). Briefly whole blood was diluted 1:1 with cold HBSS (Hanks Balanced Salt Solution), layered onto the LSM and centrifuged. The layer of mononuclear cells above the LSM was collected, transferred to a new tube and washed once with cold HBSS. Cells were resuspended in RPMI 1640, 10% HI-FBS, 2 mM L-glutamine and 0.01 mg/ml Gentamicin Reagent Solution (GIBCO/Invitrogen). Cells were seeded into T-75 cm^2 flasks at ≦1×10^7 cells in 20 mls medium and stimulated with 300 ng/ml of phorbol 12-myristate 13-acetate (PMA) for 24 hours. […]
(§1) PBMCs were collected by transferring the cells, including attached cells and those in suspension, into 50 ml tubes. […] Samples were sonicated on ice for 30 seconds, clarified by centrifugation at 16,000×g for 10 minutes at 4° C. and protein concentrations determined using Non-Interfering Protein Assay Kit (Geno Technology Incorporated, Maplewood, Mo.). […] For Western blotting, total Rb was detected using antibody from Pharmingen (BD Bioscience, San Diego, Calif.) at a dilution of 1:2000. […]

[2] = tested on: Rb phosphorylation in human PBMCs; assay: Rb phosphorylation in human PBMCs stimulated ex vivo with PMA; type: cell-based
Protocol: Approximately 10 mls of blood was collected from five healthy human volunteers into sodium heparin treated Vacutainer blood collection tubes by Employee Health Services. PBMCs were separated using the Lymphocyte Separation Medium (LSM) and protocol supplied by ICN Biomedicals Inc. (Costa Mesa, Calif.). Briefly whole blood was diluted 1:1 with cold HBSS (Hanks Balanced Salt Solution), layered onto the LSM and centrifuged. The band of mononuclear cells above the LSM was collected, transferred to a new tube and washed once with cold HBSS. Cells were resuspended in RPMI 1640, 10% HI-FBS, 2 mM L-glutamine and 0.01 mg/ml Gentamicin Reagent Solution (GIBCO/Invitrogen). […]
as §1, with “1:2000. Lysates were analysed by Western blotting for Rb phosphorylation using polyclonal antibodies against phosphorylated serine 795, serine 780, threonine 821 and serine 807/811 in human Rb (FIG. 8).” for “1:2000.”

[3] = tested on: Rb phosphorylation in cells; conditions: literature report; cited from earlier work
[4] = tested on: Rb phosphorylation in tumor xenografts; conditions: literature report; cited from earlier work
phosphorylated Rb = conditions: phase 1, in combination with docetaxel, cited from earlier work

## CCCCCCCCCCCCCC(=O)O[C@@H]1[C@@H](C)[C@@]2(O)[C@@H](C=C(CO)C[C@]3(O)C(=O)C(C)=C[C@@H]23)[C@@H]2C(C)(C)[C@]12OC(C)=O [PMA, phorbol 12-myristate 13-acetate]
[1]
  Phosphorylated Rb in rat PBMCs after mitogen stimulation: sufficient for detection of phosphorylated Rb
[2]; 300 ng/ml, 24, 48 and 72 hours post stimulation
  Phosphorylation at serine 795 and serine 780 in human PBMCs: not significant until 48-72 hours
[2]; 300 ng/ml, 24 hours post mitogen addition, five donors
  Phosphorylation at serine 807/811 and threonine 821 sites in human PBMCs: Significant phosphorylation

## CC[C@H](CO)Nc1nc(NCc2ccccc2)c2ncn(C(C)C)c2n1 [CYC 202, r-Roscovitine]
[3]
  Rb phosphorylation in cells: Inhibition of Rb phosphorylation

## CC(=O)c1c(C)c2cnc(Nc3ccc(N4CCNCC4)cn3)nc2n(C2CCCC2)c1=O [PD 0332991]
[3]
  Rb phosphorylation in cells: Inhibition of Rb phosphorylation
[4]
  Rb phosphorylation in tumor xenografts: Inhibition of Rb phosphorylation

## CC(C)(C)c1cnc(CSc2cnc(NC(=O)C3CCNCC3)s2)o1 [BMS-387032]
[3]
  Rb phosphorylation in cells: Inhibition of Rb phosphorylation

## CN1CC[C@H](c2c(O)cc(O)c3c(=O)cc(-c4ccccc4Cl)oc23)[C@H](O)C1 [flavopiridol]
[3]
  Rb phosphorylation in cells: Inhibition of Rb phosphorylation
Phosphorylated Rb; 6 paired tumors
  pRb in paired tumors: no significant changes
Phosphorylated Rb; patients with metastatic tumors
  pRb in buccal mucosa biopsies post treatment: somewhat decreased
